Measurements from PubChem BioAssay AID248 (DTP/NCI, 2004).
Several values for one entry are separate records, joined by “and”; a condition that tells them apart may be missing. Equal values may be shown once. Inconclusive results and toxic doses are left out. Rule as the data show it: active = T/C of 150% or more; inactive = T/C below 125%.

System: L1210 leukemia ip in BDF1 mice, survival T/C
Assay: NCI In Vivo Anticancer Drug Screen. Data for tumor model L1210 Leukemia (intraperitoneal) in B6D2F1 (BDF1) mice
Settings: endpoint: mean survival time, higher = longer survival
How it was run: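 Antitumor effect is assessed in tumor-bearing animals. Survival in the compound arm is compared with a vehicle-dosed control arm and expressed as their quotient.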

[1] = dose: 100.0 mg/kg/injection, schedule: Q04DX002 (ip), vehicle: saline
[2] = dose: 100.0 mg/kg/injection, schedule: Q01DX001 (ip), vehicle: saline
[3] = dose: 200.0 mg/kg/injection, schedule: Q01DX001 (ip), vehicle: saline
[4] = dose: 400.0 mg/kg/injection, schedule: Q01DX001 (ip), vehicle: saline
[5] = dose: 100.0 mg/kg/injection, schedule: Q01DX009 (ip), vehicle: Klucel (hydroxypropylcellulose) (HPC)
[6] = dose: 200.0 mg/kg/injection, schedule: Q01DX009 (ip), vehicle: Klucel (hydroxypropylcellulose) (HPC)
[7] = dose: 400.0 mg/kg/injection, schedule: Q01DX009 (ip), vehicle: Klucel (hydroxypropylcellulose) (HPC)
[8] = dose: 100.0 mg/kg/injection, schedule: Q01DX009 (ip), vehicle: saline with Tween-80
[9] = dose: 100.0 mg/kg/injection, schedule: Q04DX003 (ip), vehicle: saline with Tween-80
[10] = dose: 200.0 mg/kg/injection, schedule: Q04DX003 (ip), vehicle: saline with Tween-80
[11] = dose: 400.0 mg/kg/injection, schedule: Q04DX003 (ip), vehicle: saline with Tween-80
[12] = dose: 100.0 mg/kg/injection, schedule: Q01DX001 (ip), vehicle: Klucel (hydroxypropylcellulose) (HPC)
[13] = dose: 100.0 mg/kg/injection, schedule: Q04DX002 (ip), vehicle: Klucel (hydroxypropylcellulose) (HPC)
[14] = dose: 100.0 mg/kg/injection, schedule: Q04DX003 (ip), vehicle: Klucel (hydroxypropylcellulose) (HPC)
[15] = dose: 200.0 mg/kg/injection, schedule: Q01DX001 (ip), vehicle: Klucel (hydroxypropylcellulose) (HPC)
[16] = dose: 200.0 mg/kg/injection, schedule: Q04DX002 (ip), vehicle: Klucel (hydroxypropylcellulose) (HPC)
[17] = dose: 200.0 mg/kg/injection, schedule: Q04DX003 (ip), vehicle: Klucel (hydroxypropylcellulose) (HPC)
[18] = dose: 400.0 mg/kg/injection, schedule: Q01DX001 (ip), vehicle: Klucel (hydroxypropylcellulose) (HPC)
[19] = dose: 400.0 mg/kg/injection, schedule: Q04DX002 (ip), vehicle: Klucel (hydroxypropylcellulose) (HPC)
[20] = dose: 400.0 mg/kg/injection, schedule: Q04DX003 (ip), vehicle: Klucel (hydroxypropylcellulose) (HPC)
[21] = dose: 200.0 mg/kg/injection, schedule: Q01DX009 (ip), vehicle: saline with Tween-80
[22] = dose: 400.0 mg/kg/injection, schedule: Q01DX009 (ip), vehicle: saline with Tween-80
[23] = dose: 25.0 mg/kg/injection, schedule: Q01DX009 (ip), vehicle: saline with Tween-80
[24] = dose: 50.0 mg/kg/injection, schedule: Q01DX009 (ip), vehicle: saline with Tween-80
[25] = dose: 100.0 mg/kg/injection, schedule: Q04DX002 (ip), vehicle: gum acacia
[26] = dose: 200.0 mg/kg/injection, schedule: Q04DX002 (ip), vehicle: gum acacia
[27] = dose: 400.0 mg/kg/injection, schedule: Q04DX002 (ip), vehicle: gum acacia
[28] = dose: 50.0 mg/kg/injection, schedule: Q01DX001 (ip), vehicle: saline
[29] = dose: 12.5 mg/kg/injection, schedule: Q04DX003 (ip), vehicle: saline
[30] = dose: 25.0 mg/kg/injection, schedule: Q04DX003 (ip), vehicle: saline
[31] = dose: 50.0 mg/kg/injection, schedule: Q04DX003 (ip), vehicle: saline
[32] = dose: 100.0 mg/kg/injection, schedule: Q04DX003 (ip), vehicle: saline
[33] = dose: 200.0 mg/kg/injection, schedule: Q04DX003 (ip), vehicle: saline

Measured: T/C

O=C(CCl)Nc1ccccc1S(=O)(=O)F
inactive: dose: 18.75 mg/kg/injection, schedule: Q01DX009 (ip), vehicle: carboxymethylcellulose (CMC) 91 % of control | dose: 37.5 mg/kg/injection, schedule: Q01DX009 (ip), vehicle: carboxymethylcellulose (CMC) 92 % of control | dose: 75.0 mg/kg/injection, schedule: Q01DX001 (ip), vehicle: carboxymethylcellulose (CMC) 98 % of control | dose: 75.0 mg/kg/injection, schedule: Q04DX003 (ip), vehicle: carboxymethylcellulose (CMC) 94 % of control | dose: 150.0 mg/kg/injection, schedule: Q01DX001 (ip), vehicle: carboxymethylcellulose (CMC) 93 % of control | dose: 150.0 mg/kg/injection, schedule: Q04DX003 (ip), vehicle: carboxymethylcellulose (CMC) 88 % of control | dose: 300.0 mg/kg/injection, schedule: Q01DX001 (ip), vehicle: carboxymethylcellulose (CMC) 97 % of control

CN(C)P1(=O)N(c2ccc(Cl)cc2)P(=O)(N(C)C)N1c1ccc(Cl)cc1 (stereo not given)
inactive: [1] 96 % of control | dose: 200.0 mg/kg/injection, schedule: Q04DX002 (ip), vehicle: saline 100 % of control | dose: 400.0 mg/kg/injection, schedule: Q04DX002 (ip), vehicle: saline 93 % of control

CC(=O)Nc1ccccc1SC(C)=O
inactive: dose: 100.0 mg/kg/injection, schedule: Q04DX003 (ip), vehicle: other 88 % of control

CC(=O)OCC(OC(C)=O)C(OC(C)=O)C(Cn1c(=O)cc(C)c2ccc(C)c(C)c21)OC(C)=O (stereo not given)
inactive: [2] 88 % of control | [3] 93 % of control | [4] 88 % of control

C=CCc1ccc(OC(=O)Nc2ccc([N+](=O)[O-])cc2OC)c(OC)c1
inactive: [5] 96 % of control | [6] 93 % of control | [7] 96 % of control

Nc1nc(C=O)c(Cc2ccc(Br)cc2)c(=O)[nH]1
inactive: [8] 118 % of control | [9] 100 % of control | [10] 105 % of control | [11] 102 % of control

CCOC(=O)COc1ccc([N+](=O)[O-])cc1
inactive: [12] 112 % of control | [5] 97 % of control and 98 % of control | [13] 96 % of control and 101 % of control | [14] 106 % of control | [15] 98 % of control | [6] 95 % of control and 105 % of control | [16] 96 % of control and 103 % of control | [17] 100 % of control | [18] 106 % of control | [7] 93 % of control and 101 % of control | [19] 92 % of control and 102 % of control | [20] 101 % of control

CC(C)(C)n1cc(C(=O)c2ccccc2)cc1-c1ccccc1
inactive: [8] 91 % of control | [21] 91 % of control | [22] 87 % of control

O=C(C[n+]1ccccc1)N/N=C/c1ccccc1O
inactive: dose: 12.5 mg/kg/injection, schedule: Q01DX009 (ip), vehicle: saline with Tween-80 86 % of control | [23] 86 % of control | [24] 96 % of control

COc1cccc(NC(=S)NC2CCCCCCCCCCC2)c1
inactive: [25] 94 % of control | [26] 94 % of control | [27] 94 % of control

O=C(O)c1ccc2[nH]c(=O)c(=O)[nH]c2c1
inactive: [14] 96 % of control | [17] 101 % of control | [20] 102 % of control

COC1=NCCCCC1
inactive: dose: 50.0 mg/kg/injection, schedule: Q04DX003 (ip), vehicle: saline with Tween-80 94 % of control | [9] 99 % of control | [10] 91 % of control

CN1CCC(=O)N1
inactive: [2] 100 % of control | [3] 100 % of control | [4] 98 % of control

CN(C1=NS(=O)(=O)N=C(N(C)c2ccccc2)O1)c1ccccc1
inactive: [14] 102 % of control | [17] 102 % of control | [20] 98 % of control

CC(=O)N/N=C/c1cccc([N+](=O)[O-])c1
inactive: [24] 102 % of control | [8] 97 % of control | [21] 94 % of control

O=[N+]([O-])c1ccc(P(=O)(O)O)cc1
inactive: [28] 103 % of control | [2] 101 % of control | [3] 107 % of control | [4] 115 % of control

N=C(N=C(N)N)N1CCOCC1
inactive: [8] 101 % of control | [9] 105 % of control | [21] 98 % of control | [10] 112 % of control | [22] 103 % of control | [11] 104 % of control

CNCCNCC(Cc1ccccc1)c1ccccc1 (stereo not given)
inactive: dose: 25.0 mg/kg/injection, schedule: Q04DX002 (ip), vehicle: saline 107 % of control | dose: 50.0 mg/kg/injection, schedule: Q04DX002 (ip), vehicle: saline 97 % of control | [1] 97 % of control

NC(=S)Nc1ccccn1
inactive: [23] 103 % of control | [24] 90 % of control | [8] 101 % of control | [9] 98 % of control

NC(=S)N/N=C/c1cc(=O)[nH]c(=O)[nH]1
inactive: [28] 93 % of control | [2] 95 % of control | [3] 98 % of control | [4] 95 % of control

C[N+](C)([O-])CCC=C1c2ccccc2CCc2ccccc21
inactive: [29] 103 % of control | [30] 106 % of control | [31] 103 % of control | [32] 103 % of control | [33] 97 % of control

CCCCSP(=O)(SCCCC)c1ccccc1
inactive: [12] 100 % of control | [15] 102 % of control | [18] 95 % of control

CNC(=O)Nc1ccc(C(=O)OCC(C)C)cc1
inactive: [5] 104 % of control | [6] 115 % of control | [7] 104 % of control

CCCCC1CCC2=C(CC(O)(CCCC)CC3=C1C(=O)OC3=O)C(=O)OC2=O (stereo not given)
inactive: dose: 100.0 mg/kg/injection, schedule: Q04DX002 (ip), vehicle: saline with Tween-80 106 % of control | dose: 200.0 mg/kg/injection, schedule: Q04DX002 (ip), vehicle: saline with Tween-80 95 % of control

CCCCCCCCCCCCCCCCNS(=O)(=O)c1ccc(S(=O)(=O)F)cc1
inactive: [9] 94 % of control | [10] 94 % of control | [11] 89 % of control

O=C(Sc1n[nH]c(=O)[nH]c1=O)c1ccccc1
inactive: [2] 109 % of control | [3] 107 % of control | [4] 105 % of control

COc1ccc(F)cc1CC(=O)O
inactive: [13] 102 % of control and 105 % of control | [16] 98 % of control and 105 % of control | [19] 91 % of control and 96 % of control

SCc1ccc(Cl)cc1.[Pb]
inactive: [25] 88 % of control | [26] 98 % of control | [27] 109 % of control

CC(C)(C)C1=C[P+](c2ccccc2)(c2ccccc2)C(C(C)(C)C)=C[P+]1(c1ccccc1)c1ccccc1
inactive: dose: 12.5 mg/kg/injection, schedule: Q01DX009 (ip), vehicle: saline 94 % of control | [29] 96 % of control | dose: 25.0 mg/kg/injection, schedule: Q01DX009 (ip), vehicle: saline 104 % of control | [30] 122 % of control | dose: 50.0 mg/kg/injection, schedule: Q01DX009 (ip), vehicle: saline 100 % of control | [31] 108 % of control

CC(O)C(O)C(=O)OCc1ccccc1 (stereo not given)
inactive: dose: 100.0 mg/kg/injection, schedule: Q01DX009 (ip), vehicle: saline 117 % of control | [32] 101 % of control | dose: 200.0 mg/kg/injection, schedule: Q01DX009 (ip), vehicle: saline 102 % of control | [33] 103 % of control | dose: 400.0 mg/kg/injection, schedule: Q01DX009 (ip), vehicle: saline 110 % of control | dose: 400.0 mg/kg/injection, schedule: Q04DX003 (ip), vehicle: saline 98 % of control
